Entries after “also recorded” stand apart in the source; their conditions may differ. [pyrroloC] = pyrrolo-2'-deoxycytidine (fluorescent C analogue)

The nature of series [1]: Spectral properties of pyrrolo-dC (extinction coefficients, fluorescence quantum yield). The class given is physicochemical. Particulars: for QY (quantum yield): relative to quinine sulfate in O.5 M H2SO4. The source says:
The spectral properties of pyrrolo-dC, coupled with its unique base-pairing ability, make this fluorescent analog extremely valuable in probing DNA structure. When the pyrrolo-dC is base-paired, its fluorescence can be reduced or quenched through what is most likely base stacking interactions (see Table I).

For series [2], the system named is otherwise duplex hybrid, mismatched base adenosine. The following applies: mismatched base is adenosine; cited from earlier work.
In another series the test system is polymerases. In words: Cycle sequencing of PCR fragments made with pyrrolo-dC substituted primer. The series is classed as biochemical. The following applies: C in sense strand product, G in antisense strand product. From the text:
A series of tests was designed to determine if a pyrrolo-dC residue coded as dC for a dG. In this experiment a 100× diluted aliquot of the ˜500 nucleotide insert generated by the control T7 and Sp6 primers was further amplified using a biotinylated Sp6 primer and either a control 42 base M13-T7 primer or one with four pyrrolo-dC substitutions in the T7 sequence. The PCR product was captured on streptavidin beads, excess primers were removed by washing, and the suspension was divided into two portions. One reaction (the antisense strand) was sequenced using an M13 forward primer (using ABI dRhodamine chemistry); the other was sequenced (carried out using Beckman dye terminator chemistry) by using Sp6, after releasing the sense strand by heat denaturation of the immobilized PCR fragment.
Sequencing reactions (in duplicate) were carried out with PCR fragments to determine if pyrrolo-dC substitutes for dC. PCR fragments were generated by using, as template, a 100-fold dilution of the product of T7/bio-Sp6 reaction (similar to lane 5 above) and a primer pair of biotinylated Sp6 and the M13F-T7 (or its pyrrolo-dC-substituted homolog). The PCR fragment from this amplification was purified by streptavidin beads to remove excess primers and the suspension divided into two portions. […] Thus, under cycle sequencing conditions, the pyrrolo-dC residue is read as a dC.

The target of another series is T1, AmpiTaq DNA polymerase (Thermus aquaticus, UniProt P19821).
T1 construct: purchased Applied Biosystems
As to the kind of experiment: PCR and sequencing with pyrrolo-dCTP replacing dCTP. The series is classed as biochemical. The following applies: dye-terminator cycle sequencing of PCR product. The source says:
The triphosphate of pyrrolo-dC (pyrrolo-dCTP) was synthesized and compared with dCTP for its ability to be recognized by polymerases and be incorporated as a dC into polymerase generated products. Nucleotide-triphosphate mixes containing either dCTP or pyrrolo-dCTP were used in amplification reactions similar to the ones above and the product analyzed by acrylamide gel.
The PCR and sequencing experiments in Example 15 were repeated to determine if polymerases incorporated pyrrolo-dCTP as efficiently as dCTP (FIGS. 7 & 8). Purified plasmid DNA with 500-600 bp inserts were amplified in a standard 25 μl PCR reaction. One of the primers was biotinylated to facilitate the post-reaction cleanup of the PCR product. AmpiTaq DNA polymerase (1.25 Units, Applied Biosystems) was used as enzyme with 200 μM final concentration of each dNTP. In the pyrrolo-dCTP samples the dCTP was replaced with 200 μM pyrrolo-dCTP. Following the PCR reaction (55° C. annealing for 20 sec, 72° C. extension for 45 sec, 30 cycles) an aliquot of the reaction was subjected to agarose gel electrophoresis to verify the size and quality of the product. […] An aliquot of the purified product, still attached to the magnetic beads, was sequenced in a standard fluorescent dye-terminator cycle sequencing reaction and analyzed on a Beckman CEQ2000XL DNA sequencer.

Another series has as its target T7 RNA Polymerase (Escherichia phage T7, UniProt P00573). The following applies: transcription bubble in elongation complexes; cited from earlier work.
Series [3] relates to polymerases Taq, Vent, Pfu. In words: PCR with different polymerases using T7 or T7-4 pyrrolo-dC primer. The series is classed as biochemical. Particulars: biotinylated Sp6 reverse primer, ~500 nucleotide insert, Vent lower efficiency for both primers. From the text:
The control and experimental T7 primers were next compared in another experiment using limiting concentrations of each of the T7 primers (1.3, 0.4, 0.15 and 0.05 pmole per reaction) and excess Sp6 primer. […] Finally the control and T7 primer containing four pyrrolo-dC substitutions were compared in their ability to be recognized by a variety of polymerases, Taq from ABI, Vent from New England Biolabs and Pfu from Stratagene. In this case a biotinylated Sp6 primer was used as the reverse primer in the amplification reaction of a plasmid containing an approximately 500 nucleotide insert.
Experiments were carried out to examine the effect of substituted pyrrolo-dC primers on the activity of several polymerases. Three experiments were carried out to examine the ability of different polymerases (Taq, Vent, Pfu) to use the T7 or T7-4 pyrrolo-dC primer in PCR; the other primer in the pair was biotinylated Sp6. […] In FIG. 6, lane 1 is standards, lane 2 is T7-4 pyrrolo-dC primer with Taq (ABI), lane 3 is T7-4 pyrrolo-dC primer with Vent (NEB), lane 4 is T7-4 pyrrolo-dC primer with Pfu (Stratagene), lane 5 is T7 primer with Taq (ABI), lane 6 is T7 primer with Vent (NEB), lane 7 is T7 primer with Pfu (Stratagene), and lane 8 is standards.

In series [4] the test system is plasmid 600-nucleotide insert. In words: PCR assay: ability of pyrrolo-dC substituted T7 primers to amplify a plasmid insert. The series is classed as biochemical. The following applies: primer dilution 4, 1.3, 0.4, 0.15 and 0.05 pmol, FIG. 4. The procedure:
A series of tests were performed to test the ability of the T7 primers synthesized above to function in biological assays. In the first series of tests each of the T7 primers was evaluated in a PCR assay for their ability to amplify a plasmid insert. In the first experiment either the control or one of the experimental T7 forward primers, with one to four pyrrolo-dC substitutions, and an Sp6 reverse primer were tested for their ability to amplify a plasmid 600-nucleotide insert using supramaximal primer concentrations and the PCR products analyzed on an acrylamide gel. The sequences of the T7 forward primers are as follows: 5′-TAA TAC GAX TCA CTA TAG G-3′ (SEQ ID NO.: 6); 5′-TAA TAC GAX TXA CTA TAG G-3′ (SEQ ID NO.: 7); 5′-TAA TAX GAX TXA CTA TAG G-3′ (SEQ ID NO.: 8); 5′-TAA TAX GAX TXA XTA TAG G-3′ (SEQ ID NO.: 9); (control) 5′-TAA TAC GAC TCA CTA TAG G-3′ (SEQ ID NO.: 10), where X=pyrrolo-dC. Analysis of the stained gel was consistent with no differences in either the mobility or intensity of the stained bands corresponding to the 600-nucleotide PCR product generated by the control or experimental T7 primers.
The control and experimental T7 primers were next compared in another experiment using limiting concentrations of each of the T7 primers (1.3, 0.4, 0.15 and 0.05 pmole per reaction) and excess Sp6 primer. […]

Series [5] has as its system complementary strands containing each of the four natural deoxyribonucleotide bases opposite pyrrolo-dC. As to the kind of experiment: Hybridization specificity: melting temperature (Tm) of 19mer oligonucleotide containing a single pyrrolo-dC. The series is classed as binding. Here is the method:
The hybridization specificity of pyrrolo-dC was evaluated by determining the melting temperature (Tm) of a 19mer oligonucleotide with the sequence 5′-GCC TAA CTT CXG GAG ATG T-3′ (SEQ ID NO.: 1), where X is Pyrrolo-dC which contains a single pyrrolo-dC. This oligonucleotide was annealed to complementary strands containing each of the four natural deoxyribonucleotide bases opposite it. Hybridization was best with a strand containing dG opposite pyrrolo-dC and decreased in the order dG>dT>dA>dC (melting temperature Tm=65, 56, 55 and 52° C. respectively). The effect of multiple incorporations was next evaluated by synthesizing a T7 universal primer where dC was replaced with zero to four pyrrolo-dC residues. All five oligonucleotides had the same Tm as that of the control (57° C.) when hybridized with an oligonucleotide complementary to the T7 primer regardless of the number of pyrrolo-dC/dC substitutions.

Sequence of T7 RNA Polymerase (P00573 whole entry): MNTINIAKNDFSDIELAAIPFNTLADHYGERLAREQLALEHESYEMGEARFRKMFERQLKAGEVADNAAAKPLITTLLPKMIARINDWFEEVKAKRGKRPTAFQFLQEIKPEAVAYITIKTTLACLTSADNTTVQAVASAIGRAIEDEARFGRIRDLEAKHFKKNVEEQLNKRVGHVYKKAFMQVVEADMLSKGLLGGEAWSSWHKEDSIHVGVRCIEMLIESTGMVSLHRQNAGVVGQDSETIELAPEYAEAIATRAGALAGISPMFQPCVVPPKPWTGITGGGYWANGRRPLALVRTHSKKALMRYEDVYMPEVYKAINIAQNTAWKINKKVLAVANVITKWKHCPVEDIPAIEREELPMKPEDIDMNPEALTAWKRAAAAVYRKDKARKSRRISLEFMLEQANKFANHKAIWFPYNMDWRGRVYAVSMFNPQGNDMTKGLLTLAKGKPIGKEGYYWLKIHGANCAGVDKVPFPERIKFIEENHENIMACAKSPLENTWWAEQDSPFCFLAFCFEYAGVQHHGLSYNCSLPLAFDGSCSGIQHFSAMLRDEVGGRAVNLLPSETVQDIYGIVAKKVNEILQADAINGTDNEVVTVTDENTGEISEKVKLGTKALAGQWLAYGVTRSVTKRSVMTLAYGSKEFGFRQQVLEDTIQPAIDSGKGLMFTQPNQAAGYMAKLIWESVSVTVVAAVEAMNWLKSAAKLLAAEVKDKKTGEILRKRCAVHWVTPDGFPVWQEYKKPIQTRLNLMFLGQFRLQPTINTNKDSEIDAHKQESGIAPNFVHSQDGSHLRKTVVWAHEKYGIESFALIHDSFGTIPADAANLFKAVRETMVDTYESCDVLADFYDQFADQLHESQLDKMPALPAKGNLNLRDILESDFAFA
T1 sequence (P19821 whole entry): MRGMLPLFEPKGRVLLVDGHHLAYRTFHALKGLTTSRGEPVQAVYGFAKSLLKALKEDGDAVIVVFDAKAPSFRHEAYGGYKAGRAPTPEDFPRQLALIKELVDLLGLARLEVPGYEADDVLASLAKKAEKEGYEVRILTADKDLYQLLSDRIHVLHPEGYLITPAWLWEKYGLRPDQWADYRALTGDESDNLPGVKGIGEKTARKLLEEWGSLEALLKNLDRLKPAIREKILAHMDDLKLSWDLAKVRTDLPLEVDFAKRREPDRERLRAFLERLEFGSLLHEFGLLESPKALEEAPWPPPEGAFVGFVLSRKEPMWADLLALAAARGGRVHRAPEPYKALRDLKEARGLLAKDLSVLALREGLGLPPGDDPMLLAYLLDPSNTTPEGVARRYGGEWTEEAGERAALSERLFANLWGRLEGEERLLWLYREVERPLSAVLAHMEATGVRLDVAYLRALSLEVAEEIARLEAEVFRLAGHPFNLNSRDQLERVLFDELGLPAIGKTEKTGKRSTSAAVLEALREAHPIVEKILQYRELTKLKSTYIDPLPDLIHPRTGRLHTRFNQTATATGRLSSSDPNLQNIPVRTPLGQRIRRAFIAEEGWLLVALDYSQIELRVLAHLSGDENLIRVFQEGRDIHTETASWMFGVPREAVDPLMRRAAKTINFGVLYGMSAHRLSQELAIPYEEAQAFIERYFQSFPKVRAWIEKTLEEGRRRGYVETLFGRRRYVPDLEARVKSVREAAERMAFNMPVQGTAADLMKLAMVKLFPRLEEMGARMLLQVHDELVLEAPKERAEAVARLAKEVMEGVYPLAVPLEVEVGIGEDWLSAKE

`Cc1cc2cn([C@H]3C[C@H](O)[C@@H](CO)O3)c(=O)nc2[nH]1` [Pyrrolo-dC, 6-Methyl-3-(β-D-2-deoxyribofuranosyl)pyrrolo[2,3-d]pyrimidin-2-one]: in series [1], the E260 is 4,000 LImol cm and the E345 is on record as 3,700 L/mol cm. The “QY (quantum yield)” value in series [1] (double-stranded) is recorded as 0.02. The “QY (quantum yield)” value in series [1] (single-stranded) was determined as 0.07. The “fluorescence when mismatched in an otherwise duplex hybrid” value in series [2] was “higher than the single-stranded species”. Further, in the series on polymerases, the “how the residue is read under cycle sequencing conditions” value is on record as ““read” as a dC; also recorded: read as a dC”. The “sequence of PCR product generated with the triphosphate” value on AmpiTaq DNA polymerase is given as “specifically incorporated as a “dC” opposite a dG residue”. Further, the “increase in fluorescence as the polymerase induces melting” value at T7 RNA Polymerase is “two-fold”.
With “SEQ ID NO.:9: T7 forward primer 5′-TAA TAX GAX TXA XTA TAG G-3′, X=pyrrolo-dC; four substitutions (TAATACGACTCACTATAGG; DNA, [pyrroloC] at 6, 9, 11, 13, backbone not given here)”, in series [3], the “ability to be used by polymerases in PCR versus unsubstituted T7 primer” value is listed as “equivalence”. Also, the “primer amount at which product formation sharply decreases” value in series [4] is reported as “around 0.15 pmol”.
Take “SEQ ID NO.: 1: 19mer oligonucleotide 5′-GCC TAA CTT CXG GAG ATG T-3′, where X is Pyrrolo-dC”: the “melting temperature Tm” value in series [5] (dA opposite pyrrolo-dC) was determined as 55 °C; in series [5] (dC opposite pyrrolo-dC), 52 °C; in series [5] (dG opposite pyrrolo-dC), 65 °C; in series [5] (dT opposite pyrrolo-dC) it was 56 °C.

The values above are taken from US20040009933A1, “Fluorescent nitrogenous base and nucleosides incorporating same” (Glen Research Corporation, priority 2002, published 2004).
